Results reported in patent publication US20100137377A1, “NOVEL COMPOUNDS” (SOREN EBDRUP ET AL, priority 2007, published 2010).
“And” between values parts separate entries of the source, which are not always exact repeats. Identical values can stand only once.

molecular target: T1, h-11βHSD1 (Homo sapiens, UniProt P28845); test: 11βHSD1 enzyme assay (SPA, 3H-cortisone to 3H-cortisol); format: biochemical; conditions: extract of yeast transformed with h-11βHSD1; 120 nM 3H-cortisone, 4 mM β-NADPH, 60 min at 30° C.; several determinations per cell separated by ';'
T1 construct: made in house
T1 sequence (P28845 whole entry): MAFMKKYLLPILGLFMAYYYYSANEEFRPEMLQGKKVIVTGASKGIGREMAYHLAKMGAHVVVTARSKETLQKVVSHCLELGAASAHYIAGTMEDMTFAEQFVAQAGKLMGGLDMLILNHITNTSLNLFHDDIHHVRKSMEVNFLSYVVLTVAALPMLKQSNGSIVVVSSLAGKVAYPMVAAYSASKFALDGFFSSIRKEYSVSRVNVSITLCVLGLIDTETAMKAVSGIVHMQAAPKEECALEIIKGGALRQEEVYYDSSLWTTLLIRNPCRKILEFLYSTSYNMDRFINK
Method: ^3H-cortisone and anti-rabbit Ig coated scintillation proximity assay (SPA) beads were purchased from Amersham Pharmacia Biotech, β-NADPH was from Sigma and rabbit anti-cortisol antibodies were from Fitzgerald. An extract of yeast transformed with h-11βHSD1 (Hutt et al., FEBS Lett., 441, 25 (1998)) was used as the source of enzyme. The test compounds were dissolved in DMSO (10 mM). All dilutions were performed in a buffer containing 50 mM TRIS-HCl (Sigma Chemical Co), 4 mM EDTA (Sigma Chemical Co), 0.1% BSA (Sigma Chemical Co), 0.01% Tween-20 (Sigma Chemical Co) and 0.005% bacitracin (Novo Nordisk A/S), pH=7.4. Optiplate 96 wells plates were supplied by Packard. The amount of ^3H-cortisol bound to the SPA beads was measured on TopCount NXT, Packard.
h-11βHSD1, 120 nM ^3H-cortisone, 4 mM β-NADPH, antibody (1:200), serial dilutions of test compound and SPA particles (2 mg/well) were added to the wells. The reaction was initiated by mixing the different components and was allowed to proceed under shaking for 60 min at 30° C. The reaction was stopped be the addition of 10 fold excess of a stopping buffer containing 500 μM carbenoxolone and 1 μM cortisone. Data was analysed using GraphPad Prism software.

Row | SMILES | IC50
1 | O=C(NC1C2CC3CC1CC(O)(C3)C2)c1ccc(Oc2ccc(Cl)cc2Cl)cc1 (centres unmarked) [Compound 1, 4-(2,4-Dichloro-phenoxy)-N-(5-hydroxy-adamantan-2-yl)-benzamide] | 73 nM and 81 nM
2 | CN(C(=O)c1ccc(Oc2ccc(Cl)cn2)cc1)C1CCC(CO)CC1 (centres unmarked) [Compound 5, 4-(5-Chloro-pyridin-2-yloxy)-N-(4-hydroxymethyl-cyclohexyl)-N-methyl-benzamide] | 17 nM and 27 nM

Second part, the compound after the results:

Row | IC50 | SMILES
3 | 259 nM and 305 nM | N#Cc1ccc(Oc2ccc(C(=O)NC3C4CC5CC3CC(O)(C5)C4)cc2)nc1 (centres unmarked) [Compound 2, 4-(5-Cyano-pyridin-2-yloxy)-N-(5-hydroxy-adamantan-2-yl)-benzamide]
4 | 56 nM and 89 nM | O=C(NC1C2CC3CC1CC(O)(C3)C2)c1ccc(Oc2ccc(Cl)cn2)cc1 (centres unmarked) [Compound 3, 4-(5-Chloro-pyridin-2-yloxy)-N-(5-hydroxy-adamantan-2-yl)-benzamide]
5 | 51 nM (2×) and 56 nM | O=C(NC1C2CC3CC1CC(CO)(C3)C2)c1ccc(Oc2ccc(Cl)cn2)cc1 (centres unmarked) [Compound 4, 4-(5-Chloro-pyridin-2-yloxy)-N-(5-hydroxymethyl-adamantan-2-yl)-benzamide]
